Measurements published in patent US10624871B2, “Bismuth(III) compounds and methods thereof” (priority 2016, dated 2020).

Assays:
NDM-1 = NDM-1 (Klebsiella pneumoniae, UniProt C7C422); assay: IC50 enzyme inhibition assay, MER hydrolysis; type: biochemical; conditions: Zn2-NDM-1 50 nM, 1 h preincubation at 25° C., 100 μM MER
Description: (§1) […]. The initial rate were extracted and calculated from each reaction curves.

VIM-2 = VIM-2 (Escherichia coli, UniProt Q5U7L7); assay: IC50 enzyme inhibition assay, MER hydrolysis; type: biochemical; conditions: Zn2-VIM-2, 1 h preincubation at 25° C., 100 μM MER
Description: as §1

E. coli (NDM-1+) = assay: Microdilution MIC and MBC assay, checkerboard FICI; type: cell-based; conditions: for MBC of MER with Bi(III) compound / MIC of MER with Bi(III) compound: Bi(III) compound at 32 μg mL^−1, E. coli (NDM-1+); for FIC Index: MER with Bi(III) compound, E. coli (NDM-1+)
K. pneumonia (NDM-1+) = assay: Microdilution MIC and MBC assay, FICI; type: cell-based; conditions: for MBC of MER with Bi(III) compound / MIC of MER with Bi(III) compound: Bi(III) compound at 32 μg mL^−1, K. pneumonia (NDM-1+); for FIC Index: MER with Bi(III) compound, K. pneumonia (NDM-1+)
C. freundii (NDM-1+) = assay: Microdilution MIC and MBC assay, FICI; type: cell-based
E. coli (VIM-2+) = assay: Microdilution MIC and MBC assay, FICI; type: cell-based
E. coli (IMP-4+) = assay: Microdilution MIC and MBC assay, FICI; type: cell-based
[1] = Solubility of the bismuth complexes (Table 1); conditions: solvent named, or insoluble
[2] = Bi(III) compound at 32 μg mL^−1, C. feudii (NDM-1+)
[3] = Bi(III) compound at 32 μg mL−1, E. coli (VIM-2+)
[4] = Bi(III) compound at 32 μg mL−1, E. coli (IMP-4+)

Sequence of NDM-1 (C7C422 whole entry, looked up): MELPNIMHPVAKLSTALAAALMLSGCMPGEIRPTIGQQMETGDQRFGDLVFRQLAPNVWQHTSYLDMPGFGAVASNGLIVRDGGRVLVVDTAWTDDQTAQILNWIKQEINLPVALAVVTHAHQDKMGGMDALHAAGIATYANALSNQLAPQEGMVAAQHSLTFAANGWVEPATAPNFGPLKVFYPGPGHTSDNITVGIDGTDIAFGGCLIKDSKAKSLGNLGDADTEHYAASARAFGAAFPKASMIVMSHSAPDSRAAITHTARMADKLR

Question: Which IC50 (NDM-1) does the source give for O=[N+]([O-])[O][Bi]([O][N+](=O)[O-])[O][N+](=O)[O-] [Bi(NO3)3] here?
Answer: Its IC50 is 1890 ± 230 nM.

Question: What about the IC50 (VIM-2) of the same molecule?
Answer: Its IC50 is 2450 ± 630 nM.

Question: And the “MBC of MER with Bi(III) compound” value (E. coli (NDM-1+))?
Answer: Its value is 4 µg/mL.

Question: What about the “MIC of MER with Bi(III) compound” value (E. coli (NDM-1+)) of the same molecule?
Answer: Its value is 2 µg/mL.

Question: And the “FIC Index” value (E. coli (NDM-1+))?
Answer: The value was 0.266.

Question: And the “MBC of MER with Bi(III) compound” value (K. pneumonia (NDM-1+))?
Answer: Its value is 1 µg/mL.

Question: What about the “MIC of MER with Bi(III) compound” value (K. pneumonia (NDM-1+)) of the same molecule?
Answer: The value was 1 µg/mL.

Question: And the “FIC Index” value (K. pneumonia (NDM-1+))?
Answer: The value was 0.125.

Question: And the “MBC of MER with Bi(III) compound” value (C. freundii (NDM-1+); [2])?
Answer: Its value is 4 µg/mL.

Question: What about the “MIC of MER with Bi(III) compound” value (C. freundii (NDM-1+); [2]) of the same molecule?
Answer: The value was 2 µg/mL.

Question: And the “FIC Index” value (C. freundii (NDM-1+); MER with Bi(III) compound, C. freundii (NDM-1+))?
Answer: Its value is 0.375.

Question: And the “MBC of MER with Bi(III) compound” value (E. coli (VIM-2+); [3])?
Answer: The value was 2 µg/mL.

Question: What about the “MIC of MER with Bi(III) compound” value (E. coli (VIM-2+); [3]) of the same molecule?
Answer: The value was 1 µg/mL.

Question: What about the “FIC Index” value (E. coli (VIM-2+); MER with Bi(III) compound, E. coli (VIM-2+)) of the same molecule?
Answer: The value was 0.063.

Question: And the “MBC of MER with Bi(III) compound” value (E. coli (IMP-4+); [4])?
Answer: The value was 8 µg/mL.

Question: What about the “MIC of MER with Bi(III) compound” value (E. coli (IMP-4+); [4]) of the same molecule?
Answer: Its value is 4 µg/mL.

Question: And the “FIC Index” value (E. coli (IMP-4+); MER with Bi(III) compound, E. coli (IMP-4+))?
Answer: The value was 0.313.

Question: Which “MBC of MER with Bi(III) compound” value (E. coli (NDM-1+)) does the source give for [Bi+3].[O-]c1c([O-])c(Br)c(Br)c(Br)c1Br.[O-]c1c([O-])c(Br)c(Br)c(Br)c1Br [Complex 13] here?
Answer: Its value is 2 µg/mL.

Question: What about the “MIC of MER with Bi(III) compound” value (E. coli (NDM-1+)) of the same molecule?
Answer: Its value is 1 µg/mL.

Question: And the “FIC Index” value (E. coli (NDM-1+))?
Answer: Its value is 0.250.

Question: And the Solubility [1]?
Answer: The Solubility was “DMSO”.

Question: With O=[N+]([O-])[O-].O=[N+]([O-])[O-].[Bi+3].c1ccc(-c2ccccn2)nc1.c1ccc(-c2ccccn2)nc1 [Complex 16] as the molecule, how does the “MBC of MER with Bi(III) compound” value (E. coli (NDM-1+)) read?
Answer: The value was 8 µg/mL.

Question: And the “MIC of MER with Bi(III) compound” value (E. coli (NDM-1+))?
Answer: Its value is 2 µg/mL.

Question: With NCC(=O)[O-].NCC(=O)[O-].NCC(=O)[O-].[Bi+3] [Complex 18] as the molecule, how does the “MBC of MER with Bi(III) compound” value (E. coli (NDM-1+)) read?
Answer: Its value is 16 µg/mL.

Question: What about the “MIC of MER with Bi(III) compound” value (E. coli (NDM-1+)) of the same molecule?
Answer: Its value is 8 µg/mL.

Question: With O.O.O=C([O-])CN(CC(=O)[O-])CC(=O)[O-].[Bi+3] [Complex 11] as the molecule, how does the “MBC of MER with Bi(III) compound” value (E. coli (NDM-1+)) read?
Answer: The value was 8 µg/mL.

Question: What about the “MIC of MER with Bi(III) compound” value (E. coli (NDM-1+)) of the same molecule?
Answer: Its value is 4 µg/mL.

Question: Which results are given for O=C(O)c1ccccc1[S-].O=C([O-])c1ccccc1[S-].[Bi+3] [Complex 7]?
Answer: MBC of MER with Bi(III) compound (E. coli (NDM-1+)): 2 µg/mL; MIC of MER with Bi(III) compound (E. coli (NDM-1+)): 1 µg/mL; FIC Index (E. coli (NDM-1+)): 0.250; Solubility [1]: DMSO

Question: What does the source list for CNC(=C[N+](=O)[O-])NCCSCc1ccc(CN(C)C)o1.O=C([O-])CC(O)(CC(=O)[O-])C(=O)[O-].[Bi+3] [RBC, ranitidine bismuth citrate]?
Answer: MBC of MER with Bi(III) compound (E. coli (NDM-1+)): 4 µg/mL; MIC of MER with Bi(III) compound (E. coli (NDM-1+)): 2 µg/mL

Question: With bismuth subgallate [Complex 14] as the molecule, how does the “MBC of MER with Bi(III) compound” value (E. coli (NDM-1+)) read?
Answer: The value was 8 µg/mL.

Question: And the “MIC of MER with Bi(III) compound” value (E. coli (NDM-1+))?
Answer: The value was 4 µg/mL.

Question: What about the “FIC Index” value (E. coli (NDM-1+)) of the same molecule?
Answer: The value was 0.375.

Question: What about the Solubility [1] of the same molecule?
Answer: The Solubility was “Insoluble”.

Question: Which results are given for C1=CC2=C(c3ccccc3)c3ccc4[n]3[Bi+][n]3c(ccc3=C(c3ccccc3)C3=NC(=C4c4ccccc4)C=C3)=C(c3ccccc3)C1=N2 [Complex 1]?
Answer: MBC of MER with Bi(III) compound (E. coli (NDM-1+)): 8 µg/mL; MIC of MER with Bi(III) compound (E. coli (NDM-1+)): 4 µg/mL; FIC Index (E. coli (NDM-1+)): 0.266; MBC of MER with Bi(III) compound (K. pneumonia (NDM-1+)): 16 µg/mL; MIC of MER with Bi(III) compound (K. pneumonia (NDM-1+)): 4 µg/mL; FIC Index (K. pneumonia (NDM-1+)): 0.375
